For data set [1] the following is noted: increased salt concentrations (Fairbanks and Burch, 1970); cited from earlier work.
In another data set the target is T1, peroxidasin (Mus musculus, UniProt Q3UQ28).
T1 construct: Cultured murine PFHR9 cells synthesize collagen IV networks that contain sulfilimine crosslinks due to the activity of PXDN; endogenous in cells; host or cells: PFHR-9 cells (isolated matrix from KI-treated culture)
T1 sequence (Q3UQ28 24-1475): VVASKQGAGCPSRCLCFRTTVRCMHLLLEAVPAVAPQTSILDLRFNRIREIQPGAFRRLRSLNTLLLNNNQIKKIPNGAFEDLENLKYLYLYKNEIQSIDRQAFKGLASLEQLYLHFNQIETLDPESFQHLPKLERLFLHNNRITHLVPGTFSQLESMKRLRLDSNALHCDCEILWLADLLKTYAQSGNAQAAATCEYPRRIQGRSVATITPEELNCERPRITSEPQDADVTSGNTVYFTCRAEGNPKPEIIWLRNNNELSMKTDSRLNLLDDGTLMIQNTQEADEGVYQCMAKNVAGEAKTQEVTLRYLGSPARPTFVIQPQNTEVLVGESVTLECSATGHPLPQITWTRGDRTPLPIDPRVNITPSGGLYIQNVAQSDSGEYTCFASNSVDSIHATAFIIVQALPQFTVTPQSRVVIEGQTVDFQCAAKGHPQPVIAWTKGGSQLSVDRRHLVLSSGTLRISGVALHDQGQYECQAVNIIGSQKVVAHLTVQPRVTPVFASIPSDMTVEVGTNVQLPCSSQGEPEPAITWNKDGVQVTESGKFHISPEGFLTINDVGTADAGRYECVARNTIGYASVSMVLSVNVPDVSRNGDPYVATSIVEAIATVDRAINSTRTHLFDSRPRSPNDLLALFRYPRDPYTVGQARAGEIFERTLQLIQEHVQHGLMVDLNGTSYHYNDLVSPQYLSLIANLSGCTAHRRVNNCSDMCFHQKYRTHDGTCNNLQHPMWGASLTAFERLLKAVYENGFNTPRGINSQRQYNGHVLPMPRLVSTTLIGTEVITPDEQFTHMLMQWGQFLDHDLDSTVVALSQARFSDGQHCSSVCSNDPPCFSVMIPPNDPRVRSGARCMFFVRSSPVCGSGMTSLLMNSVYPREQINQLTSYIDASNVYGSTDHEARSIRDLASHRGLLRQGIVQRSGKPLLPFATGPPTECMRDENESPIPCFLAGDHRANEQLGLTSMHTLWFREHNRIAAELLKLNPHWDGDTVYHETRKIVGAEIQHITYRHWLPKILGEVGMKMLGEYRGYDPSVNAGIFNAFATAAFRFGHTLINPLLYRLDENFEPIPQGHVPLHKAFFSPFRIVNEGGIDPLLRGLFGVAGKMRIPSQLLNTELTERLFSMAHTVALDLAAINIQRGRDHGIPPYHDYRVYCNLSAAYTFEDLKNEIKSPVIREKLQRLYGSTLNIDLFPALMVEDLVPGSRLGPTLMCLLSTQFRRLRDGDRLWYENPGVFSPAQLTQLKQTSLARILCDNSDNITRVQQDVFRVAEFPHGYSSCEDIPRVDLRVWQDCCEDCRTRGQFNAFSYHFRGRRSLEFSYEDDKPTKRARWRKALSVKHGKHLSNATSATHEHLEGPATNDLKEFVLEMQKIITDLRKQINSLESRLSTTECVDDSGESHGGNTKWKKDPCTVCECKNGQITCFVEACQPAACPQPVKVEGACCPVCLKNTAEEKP
In words: In vitro basement membrane (uncrosslinked PFHR-9 matrix) reaction with halides and H2O2. Type of data set: biochemical. The procedure:
(FIG. 8A) Matrix pellets isolated from KI-treated PFHR9 cell culture were extensively washed into 10 mM phosphate buffer (pH 7.4) supplemented with 100 mM KF to maintain ionic strength. Potassium salts of Cl— or Br— were added in indicated amounts. 1 hr reactions at 37° C. were initiated by addition of H2O2 to 1 mM and stopped by freezing at −20° C. Coomassie blue-stained gels after collagenase digestion of the samples and SDS-PAGE (FIG. 8B) Schematic of Br-Free chloride salt purification apparatus and setup. […] Reagent KCl was commercially obtained and unaltered prior to analysis. 100 mM solutions were made with 18MΩ deionized water. (FIG. 8C) Coomassie blue stained gel of collagenase digested PFHR-9 matrix reaction assay. Reaction buffered contained 10 mM phosphate buffer (pH 7.4), 100 mM Br-Free or Commercially obtained reagent grade KCl, as well as 1 mM H2O2 and 200 μM PHG where appropriate. (FIG. 8D) SDS-PAGE and coomassie blue stain of hPXDN (27.25 nM) and NC1 domain (1.3 μM) reaction and subsequent densiometric quantitation of S═N bond formation stiochiometry in response to NaBr addition. hPXDN and PFHR-9 NC1 domain were prepared and purified as described (5), except with all buffers for all purification steps (dialysis, chromatography, gradient ultracentrifugation) made with Br-Free chloride salts. Reactions were run for 10 minutes at 37° C. with 10 μM H2O2 as the terminal oxidant. Dose-response curve run in the presence of 1× Br-Free PBS. Reactions were quenched with 0.2 mg/ml Catalase, 20 mM Methionine, and 1 mM PHG. EC50 value±95% C.I. from two independent experiments with each data point plotted and fit.
Uncrosslinked PFHR9 matrix was extensively washed into 10 mM phosphate buffer (pH 7.4) that was supplemented with 100 mM KF to maintain ionic strength. One hour reactions at 37° C. were initiated by addition of H2O2 to 1 mM and stopped by freezing at −20° C. […] Samples were digested with collagenase at 37° C. overnight and visualized by SDS-PAGE using 12% gels under non-reducing conditions with Coomassie staining.
PFHR-9 cells treated with potassium iodide (1-10 mM) to eliminate NC1 hexamer crosslinks were used for basement membrane isolation. To test halide dependency, the inventors established halide-free conditions by washing extensively (at least five times) with 10 mM sodium phosphate pH 7.4. To try to extract or inactivate endogenous basement membrane peroxidase activity, the inventors extracted the matrix preparation twice with 2M guanidine-Cl, 50 mM Tris-Cl pH 7.5 and 10 mM EDTA-Na pH 8 followed by extensive washing with 1×PBS. Basement membrane was resuspended in the desired buffer with or without cofactors and inhibitors to examine in vitro NC1 crosslinking under various conditions. Basement membranes were collagenase solubilized to delineate collagen IV NC1 sulfilimine crosslink formation with SDS-PAGE and Coomassie blue staining membrane was isolated, washed extensively and resuspended in 1×PBS. Azide (0-10 mM) and 1 mM H2O2 were added and allowed to react for 1 h at 37° C. The matrix was pelleted, washed extensively with 1×PBS and solubilized with 1×PBS plus 2% (w/v) SDS. Solubilized proteins were reacted with 100 μM Tris[(1-benzyl-1H-1,2,3-triazol-4-yl)methyl]amine (Anaspec), 1 mM Tris(2-carboxyethyl)phosphine hydrochloride (ThermoFisher Pierce), 1 mM cupric sulfate and 100 μM biotin alkyne (PEG4 carboxamide-propargyl biotin; Life Technologies) for 1 h at 37° C. Click chemistry reactions were quenched with 1 mM 3′-azido-3′-deoxythymidine (Sigma). For avidin-HRP detection, samples were electrophoresed under reducing conditions, transferred to nitrocellulose membranes and probed with streptavidin-HRP according to manufacturer instructions (ThermoFisher Pierce). To isolate biotinylated proteins, the inventors precipitated click reaction products with two volumes of cold acetone to remove reactants, washed them with 70% (v/v) acetone and then resolubilized them in 1×PBS plus 2% SDS.

The structures appear in SMILES notation.

On to `Cl` [chloride], for which the “half-life in the fly” value in data set [1] was ~5 h. Further, the “halide concentration permitting enzymatic crosslinking within purified matrix” value on peroxidasin was found to be 100 mM. The “S═N bond formation in isolated matrix” value on peroxidasin (10 mM phosphate pH 7.4, 100 mM KF, 1 mM H2O2, 1 h at 37° C.) is “remained inactive until 100 mM”. Besides, the “dimer formation with bromide-free chloride as halide source” value on peroxidasin (100 mM Br-free chloride salt, 1 mM H2O2, isolated PFHR-9 matrix) is reported as “insufficient for the reaction”. Further, the “halide concentration at which crosslinked dimeric subunits formed” value on peroxidasin (H2O2 added to uncrosslinked basement membrane without other halides (FIG. 3B)) was ~100 mM.
